In patent US4025506A, “Broad spectrum antibiotics” (Pfizer Inc., priority 1975, dated 1977):
≈ marks a conversion by molar mass, not a printed value. Read-outs that look alike come from different tables or passages of the source.

What was measured:
P. mirabilis 57C0015 = assay: In vitro antibacterial MIC, P. mirabilis 57C0015; type: cell-based; settings: Proteus mirabilis
Excerpt: (§1) The in vitro activity of the herein described compounds renders them useful for topical application in the form of ointments, creams and the like, or for sterilization purposes, e.g., sick-room utensils.
(§2) Table I compares the in vitro profile of 6-[D-2-phenyl-2-(amidinopropionamido)acetamido]penicillanic acid (PAP) with ampicillin (AMP) and carbenicillin (CAR).

E. coli 51A266 [1] = assay: In vivo protection against experimental E. coli infection in mice (Table II); settings: doses 0.5, 4 and 24 hours after inoculation
Description: Table II presents the in vivo comparison data for the three compounds contained in Table I against several experimental infections in mice.
The values (% survivors) are obtained under standard conditions known to those skilled in the art. For the E. coli organism, the test compound is administered to the infected mice by a multiple dosing regimen in which the first dose is given 0.5 hour after inoculation and is repeated 4 and 24 hours later.

Kleb. penumoniae 53A015 = assay: In vitro antibacterial MIC, Kleb. penumoniae 53A015; type: cell-based; settings: nutrient broth, Table I
Excerpt: as §1, §2

A. aerogenes 55A002 = assay: In vitro antibacterial MIC, A. aerogenes 55A002; type: cell-based; settings: Klebsiella aerogenes, nutrient broth, Table I
Excerpt: as §1, §2

E. coli 51A002 = assay: In vitro antibacterial MIC, E. coli 51A002; type: cell-based; settings: Escherichia coli, nutrient broth, Table I
Excerpt: as §1, §2

P. mirabiis 57C015 = assay: In vitro antibacterial MIC, P. mirabiis 57C015; type: cell-based
Excerpt: as §1, §2

Ps. aeruginosa 52A490 = assay: In vitro antibacterial MIC, Ps. aeruginosa 52A490; type: cell-based; settings: Pseudomonas aeruginosa
Excerpt: as §1, §2

S. aureus 01A005 = assay: In vitro antibacterial MIC, S. aureus 01A005; type: cell-based; settings: Staphylococcus aureus
Excerpt: as §1, §2

Ps. aeruginosa 52A104 = assay: In vitro antibacterial MIC, Ps. aeruginosa 52A104; type: cell-based; settings: Pseudomonas aeruginosa
Excerpt: as §1, §2

E. coli 51A266 [2] = assay: In vitro antibacterial MIC, E. coli 51A266; type: cell-based; settings: Escherichia coli
Excerpt: as §1, §2

A. aerogenes = assay: In vitro antibacterial MIC, A. aerogenes; type: cell-based; settings: Klebsiella aerogenes
Excerpt: as §1, §2

Ser. marcescens 63A001 = assay: In vitro antibacterial MIC, Ser. marcescens 63A001; type: cell-based; settings: Serratia marcescens
Excerpt: as §1, §2

E. coli 51A266 [3] = assay: In vivo protection against E. coli infection in mice (Table IV); settings: doses 0.5, 4 and 24 hours after inoculation
Description: Table IV presents in vivo comparison data for the four compounds in Table III against E. coli infections in mice.
The values, reported as % survivors, are obtained under standard conditions familiar to those skilled in the art. The test compound is administered to the infected mice by a multiple dosing regimen in which the first dose is given 0.5 hour after inoculation and is repeated 4 and 24 hours later.

Kleb. pneumoniae 53A009 = assay: In vitro antibacterial MIC, Kleb. pneumoniae 53A009; type: cell-based; settings: Klebsiella pneumoniae
Excerpt: as §1, §2

gram-negative bacteria = settings: cited from earlier work
[4] = P. mirabilis 57C0015, nutrient broth, Table I, read-out: MIC

| SMILES | % Protection (% survivors) (E. coli 51A266 [1]; PO, 50 mg./kg.) [%] | % Protection (% survivors) (E. coli 51A266 [1]; PO, 200 mg./kg.) [%] | % Protection (% survivors) (E. coli 51A266 [1]; SC, 50 mg./kg.) [%] | % Protection (% survivors) (E. coli 51A266 [1]; SC, 200 mg./kg.) [%] | MIC (P. mirabiis 57C015) [µg/mL] | MIC (Ps. aeruginosa 52A490) [µg/mL] | MIC (S. aureus 01A005) [µg/mL] | MIC (Ps. aeruginosa 52A104) [µg/mL] | MIC (E. coli 51A266 [2]) [µg/mL] | MIC (A. aerogenes) [µg/mL] | MIC (Ser. marcescens 63A001) [µg/mL] | % Survivors (E. coli 51A266 [3]; PO, 25 mg./kg.) [%] | % Survivors (E. coli 51A266 [3]; PO, 50 mg./kg.) [%] | % Survivors (E. coli 51A266 [3]; PO, 200 mg./kg.) [%] | % Survivors (E. coli 51A266 [3]; SC, 25 mg./kg.) [%] | % Survivors (E. coli 51A266 [3]; SC, 50 mg./kg.) [%] | % Survivors (E. coli 51A266 [3]; SC, 200 mg./kg.) [%] | MIC (Kleb. pneumoniae 53A009) [µg/mL] | also measured |
| --- | --- | --- | --- | --- | --- | --- | --- | --- | --- | --- | --- | --- | --- | --- | --- | --- | --- | --- | --- |
| CC1(C)S[C@@H]2[C@H](NC(=O)[C@H](N)c3ccccc3)C(=O)N2[C@H]1C(=O)O [AMP, ampicillin] | 80 | 90 | 80 | 90 |  |  |  |  |  |  |  |  |  |  |  |  |  |  | MIC (P. mirabilis 57C0015; 57C0015): 1.56 µg/mL (≈ 4.46 µM) |
| CC1(C)S[C@@H]2[C@H](NC(=O)C(C(=O)O)c3ccccc3)C(=O)N2[C@H]1C(=O)O (some centres unmarked) [CAR, carbenicillin] | 10 | 70 | 90 | 90 |  |  |  |  |  |  |  |  |  |  |  |  |  |  | MIC (Kleb. penumoniae 53A015): > 200 µg/mL; MIC (P. mirabilis 57C0015; [4]): 1.25 µg/mL (≈ 3.3 µM) |
| CC1(C)S[C@@H]2[C@H](NC(=O)[C@H](NC(=O)CCC(=N)N)c3ccccc3)C(=O)N2[C@H]1C(=O)O [PAP, 6-[D-2-phenyl-2-(amidinopropionamido)acetamido]penicillanic acid] | 20 | 30 | 80 | 80 |  |  |  |  |  |  |  |  |  |  |  |  |  |  | MIC (Kleb. penumoniae 53A015): > 200 µg/mL; MIC (A. aerogenes 55A002): 100 µg/mL (≈ 223 µM); MIC (P. mirabilis 57C0015; [4]): 6.25 µg/mL (≈ 14 µM); MIC (E. coli 51A002): 200 µg/mL (≈ 447 µM) |
| CC1(C)S[C@@H]2[C@H](NC(=O)C(NC(=O)CNC(=N)c3ccc(Br)cc3)c3ccccc3)C(=O)N2[C@H]1C(=O)O (some centres unmarked) [X = Br] |  |  |  |  | 3.12 (≈ 5.3 µM) | 6.25 (≈ 10.6 µM) | 0.39 (≈ 0.663 µM) | 25 (≈ 42.5 µM) | 0.39 (≈ 0.663 µM) | 3.12 (≈ 5.3 µM) | 6.25 (≈ 10.6 µM) | 10 | 0 | 0 | 50 | 60 | 90 | 12.5 (≈ 21.2 µM) |  |
| CC1(C)S[C@@H]2[C@H](NC(=O)C(NC(=O)CNC(=N)c3ccc(Cl)cc3)c3ccccc3)C(=O)N2[C@H]1C(=O)O (some centres unmarked) [X = Cl] |  |  |  |  | 3.12 (≈ 5.73 µM) | 12.5 (≈ 23 µM) | 0.39 (≈ 0.717 µM) | 25 (≈ 46 µM) | 0.78 (≈ 1.43 µM) | 3.12 (≈ 5.73 µM) | 6.25 (≈ 11.5 µM) | 0 | 0 | 0 | 50 | 60 | 70 | 12.5 (≈ 23 µM) |  |
| CC1(C)S[C@@H]2[C@H](NC(=O)C(NC(=O)CNC(=N)c3ccc(F)cc3)c3ccccc3)C(=O)N2[C@H]1C(=O)O (some centres unmarked) [X = F] |  |  |  |  | 3.12 (≈ 5.91 µM) | 3.12 (≈ 5.91 µM) | 0.39 (≈ 0.739 µM) | 12.5 (≈ 23.7 µM) | 1.56 (≈ 2.96 µM) | 25 (≈ 47.4 µM) | 6.25 (≈ 11.8 µM) | 10 | 0 | 10 | 50 | 70 | 90 | 25 (≈ 47.4 µM) |  |
| CC1(C)S[C@@H]2[C@H](NC(=O)C(NC(=O)CNC(=N)c3ccccc3)c3ccccc3)C(=O)N2[C@H]1C(=O)O (some centres unmarked) [X = H] |  |  |  |  | 12.5 (≈ 24.5 µM) | 12.5 (≈ 24.5 µM) | 0.78 (≈ 1.53 µM) | 25 (≈ 49.1 µM) | 12.5 (≈ 24.5 µM) | 25 (≈ 49.1 µM) | 12.5 (≈ 24.5 µM) | 0 | 0 | 10 | 10 | 70 | 90 | 100 (≈ 196 µM) |  |
| CC1(C)S[C@@H]2[C@H](NC(=O)C(C(=O)O)c3ccccc3)C(=O)N2[C@H]1C(=O)O (stereo partly drawn) [α-Carboxybenzylpenicillin] |  |  |  |  |  |  |  |  |  |  |  |  |  |  |  |  |  |  | utility via oral administration (in words) (gram-negative bacteria; oral): limited utility via oral administration; efficacy against gram-negative bacteria (in words) (gram-negative bacteria; parenteral route): greater efficacy against gram-negative bacteria |
